We go through 7 molecules from patent US9469597B2, “(Hetero)aryl cyclopropylamine compounds as LSD1 inhibitors” (ORYZON GENOMICS, S.A., priority 2011, dated 2016).

SMILES strings stand for the structures. Structures can show the parent of a compound that is named as a salt.

Experiment [1] concerns the target Human recombinant monoamine oxidase MAO-B (Homo sapiens (Human), UniProt P27338). The experiment can be described thus: Monoamine oxidase assay (kynuramine to 4-hydroxyquinoline fluorescence), MAO-B. Format: biochemical. The conditions noted are these: Table 2. From the text: (§1) Human recombinant monoamine oxidase proteins MAO-A and MAO-B were purchased from Sigma Aldrich. MAOs catalyze the oxidative deamination of primary, secondary and tertiary amines. In order to monitor MAO enzymatic activities and/or their inhibition rate by inhibitor(s) of interest, a fluorescence-based (inhibitor)-screening assay was set up. 3-(2-Aminophenyl)-3-oxopropanamine (kynuramine dihydrobromide, Sigma Aldrich), a non fluorescent compound was chosen as a substrate. Kynuramine is a non-specific substrate for both MAO-A and MAO-B activities. While undergoing oxidative deamination by MAO activities, kynuramine is converted into 4-hydroxyquinoline (4-HQ), a resulting fluorescent product.
(§2) The monoamine oxidase activity was estimated by measuring the conversion of kynuramine into 4-hydroxyquinoline. Assays were conducted in 96-well black plates with clear bottom (Corning) in a final volume of 100 μL. The assay buffer was 100 mM HEPES, pH 7.5. Each experiment was performed in duplicate within the same experiment.
Clorgyline and Deprenyl (Sigma Aldrich) was used as a control for specific inhibition of MAO-A and MAO-B respectively. […]
(§3) The IC50 values of each inhibitor were calculated with GraphPad Prism Software.

Experiment [2] addresses Human recombinant monoamine oxidase MAO-A (Homo sapiens (Human), UniProt P21397). In words: Monoamine oxidase assay (kynuramine to 4-hydroxyquinoline fluorescence), MAO-A. Format: biochemical. The conditions noted are these: for Ki: Table 1, term Ki value used as designation for the IC50 value; for IC50: Table 2.
Excerpt: as §1, §2
Clorgyline and Deprenyl (Sigma Aldrich) was used as a control for specific inhibition of MAO-A and MAO-B respectively.
After leaving the enzyme(s) interacting with the inhibitor, KM of kynuramine was added to each reaction for MAO-B and MAO-A assay respectively, and the reaction was left for 1 hour at 37° C. in the dark. The oxidative deamination of the substrate was stopped by adding 50 μL of NaOH 2N.
as §3

A further experiment deals with THP-1 cells. In words: Induction of differentiation of THP-1 leukemia cells (CD11b membrane expression, flow cytometry). The format is cell-based, human. The conditions noted are these: at 100 nM, 96 h treatment. The protocol:
By analyzing the induction of CD11b membrane expression on THP-1 cells we are assessing the ability of LSD1 inhibitors to induce terminal monocytic differentiation of a MLL-AF9 AML cell line. […] They carry t(9;11)(p21;q23) leading to MLL-MLLT3 (MLL-AF9) fusion gene. This cell line can undergo monocytic differentiation upon treatment with the appropriate stimulus. […] In this assay, 150,000 THP-1 cells were seeded in 1 ml of complete culture medium in 6-well tissue culture plates. […] Cells were kept in the presence of test compound for 96 h at a 5% CO2 atmosphere at 37° C. After this treatment period, cells were harvested, washed twice with PBS buffer and placed in a V-bottom 96-well plate. Each treated sample was split in two. […] Percentage of CD11b positive cells, as an indicator of monocytic differentiation, was determined compared to isotype control antibody stained cells. EC50 values were calculated by non-linear regression analysis.

Human recombinant monoamine oxidase MAO-A, sequence (P21397 whole entry): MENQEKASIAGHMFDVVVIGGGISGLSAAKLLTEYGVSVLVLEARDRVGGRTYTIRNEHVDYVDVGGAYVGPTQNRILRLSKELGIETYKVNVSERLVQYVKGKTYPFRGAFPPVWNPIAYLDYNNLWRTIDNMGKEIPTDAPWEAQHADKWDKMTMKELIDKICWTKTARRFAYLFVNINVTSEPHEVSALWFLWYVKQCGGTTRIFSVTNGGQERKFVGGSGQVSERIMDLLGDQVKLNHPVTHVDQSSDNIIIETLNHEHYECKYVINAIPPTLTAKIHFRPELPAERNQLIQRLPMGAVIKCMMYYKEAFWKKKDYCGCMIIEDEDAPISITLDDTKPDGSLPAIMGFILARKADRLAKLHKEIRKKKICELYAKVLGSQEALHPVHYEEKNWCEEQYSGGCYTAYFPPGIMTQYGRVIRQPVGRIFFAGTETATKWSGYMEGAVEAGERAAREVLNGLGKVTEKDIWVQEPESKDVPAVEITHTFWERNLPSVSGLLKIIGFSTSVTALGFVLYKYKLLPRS

For the molecule `COc1ccc(NS(C)(=O)=O)cc1-c1ccc([C@H]2C[C@@H]2NC2CCC(N)CC2)cc1` (relative stereo) [Example 48, N-(4′-((trans)-2-((4-aminocyclohexyl)amino)cyclopropyl)-6-methoxy-[1,1′-biphenyl]-3-yl)methanesulfonamide], in experiment [1], the IC50 was […].
In the case of `NC1CCC(N[C@H]2C[C@@H]2c2ccccc2)CC1` (mixture of isomers) [Example 1, N1-((trans)-2-phenylcyclopropyl)cyclohexane-1,4-diamine dihydrochloride], in experiment [2], the Ki was above 40 µM and the IC50 was above 100 µM.
On the same counts, the results for `N[C@H]1CC[C@@H](N[C@H]2C[C@@H]2c2ccccc2)CC1` [Example 2, (cis)-N1-((1S,2R)-2-phenylcyclopropyl)cyclohexane-1,4-diamine hydrochloride] are above 40 µM and above 100 µM.
For `N[C@H]1CC[C@@H](N[C@@H]2C[C@H]2c2ccccc2)CC1` [Example 4, (cis)-N1-((1R,2S)-2-phenylcyclopropyl)cyclohexane-1,4-diamine hydrochloride], in experiment [2], the Ki was above 40 µM and the IC50 is above 100 µM.
Regarding `NC1CCC(N[C@@H]2C[C@@H]2c2ccccc2)CC1` (relative stereo) [Example 21, N1-((cis)-2-phenylcyclopropyl)cyclohexane-1,4-diamine], in experiment [2], the IC50 turned out to be 5.23 µM.
With `Cl.N[C@H]1CC[C@H](N[C@H]2C[C@@H]2c2ccccc2)CC1` [Example 3, (trans)-N1-((1S,2R)-2-phenylcyclopropyl)cyclohexane-1,4-diamine hydrochloride], in experiment [2], the Ki is above 40 µM and the IC50 was above 100 µM. For the same molecule, the “CD11b+ cells” value with THP-1 cells turned out to be 13% CD11b+ cells at 100 nM.
Regarding `N[C@H]1CC[C@H](N[C@@H]2C[C@H]2c2ccccc2)CC1` [Example 5, (trans)-N1-((1R,2S)-2-phenylcyclopropyl)cyclohexane-1,4-diamine hydrochloride], the IC50 in experiment [2] is above 100 µM.
